Measurements taken from US8802694B2, “3,6-diazabicyclo[3.1.1]heptanes as neuronal nicotinic acetycholine receptor ligands” (Targacept, Inc., priority 2009, dated 2014).
Like-named read-outs stand apart in the source and are kept apart here.

Tests used:
α6β3β4α5 = biological target: T1, α6β3β4α5 (Homo sapiens, UniProt P30926+Q15825); assay: Competition binding to α6β3β4α5 receptors in membranes of SH-EP1/α6β3β4α5 cells ([3H]-epibatidine); conditions: membrane competition binding
T1 construct: host or cells: SH-EP1

Human α4β2 = biological target: T2, Human α4β2 (Homo sapiens, UniProt P17787+P43681); assay: Competition binding to human α4β2 receptors in membranes of SH-EP1/human α4β2 cells ([3H]-nicotine)
T2 construct: host or cells: SH-EP1

Rat α4β2 = biological target: T3, Rat α4β2 (Rattus norvegicus, UniProt P09483+P12390); assay: Competition binding to rat α4β2 receptors in rat cortical membranes
T3 construct: Rat cortices were obtained from Analytical Biological Services; tissue Analytical Biological Services, Incorporated (ABS, Wilmington, Del.); host or cells: rat cortex (female Sprague-Dawley)
Experimental: Preparation of membranes from rat tissues. Rat cortices were obtained from Analytical Biological Services, Incorporated (ABS, Wilmington, Del.). Tissues were dissected from female Sprague-Dawley rats, frozen and shipped on dry ice. Tissues were stored at −20° C. until needed for membrane preparation. […] The resulting homogenate was centrifuged at 40,000 g for 20 minutes at 4° C. and the resulting pellet was resuspended in 20 volumes of ice-cold water. After 60-minute incubation at 4° C., a new pellet was collected by centrifugation at 40,000 g for 20 minutes at 4° C. The final pellet was resuspended in preparative buffer and stored at −20° C. On the day of the assay, tissue was thawed, centrifuged at 40,000 g for 20 minutes and then resuspended in PBS (Dulbecco's Phosphate Buffered Saline, Life Technologies, pH 7.4) to a final concentration of 2-3 mg protein/mL. Protein concentrations were determined using the Pierce BCA Protein Assay kit (Pierce Biotechnology, Rockford, Ill.), with bovine serum albumin as the standard.
Competition binding to receptors in membrane preparations. […] In brief, membranes were reconstituted from frozen stocks (approximately 0.2 mg protein) and incubated for 2 h on ice in […] assay buffer (PBS) in the presence of competitor compound (0.001 nM to […]) and radioligand. [^3H]-nicotine (L-(−)-[N-methyl-3H]-nicotine, 69.5 Ci/mmol, Perkin-Elmer Life Sciences) was used for human α4β2 binding studies. [^3H]-epibatidine (52 Ci/mmol, Perkin-Elmer Life Sciences) was used for binding studies at the other receptor subtypes. […] Filters were washed 3 times and the radioactivity retained was determined by liquid scintillation counting.
Binding data analysis. Binding data were expressed as percent total control binding. Replicates for each point were averaged and plotted against the log of drug concentration.

[1] = Human α4β2 Ki, membrane competition binding
[2] = Rat α4β2 Ki, rat cortex membranes
[3] = rat cortex membranes, read-out: Rat α4β2 Ki
[4] = membrane competition binding, read-out: Human α4β2 Ki

SMILES	Ki (α6β3β4α5; read-out: α6β3β4α5 Ki) [nM]	Ki (Human α4β2; [1]) [nM]	Ki (Rat α4β2; [2]) [nM]	Ki (Rat α4β2; [3]) [nM]	Ki (Human α4β2; [4]) [nM]	Ki (α6β3β4α5; α6β3β4α5 Ki) [nM]	Ki (Human α4β2; read-out: Human α4β2 Ki, membrane competition binding) [nM]	Ki (Rat α4β2; read-out: Rat α4β2 Ki, rat cortex membranes) [nM]
C[C@@H]1C(C(=O)N2CC3CC(C2)N3)[C@@H]1C (stereo partly drawn)	170	44	30	–	–	–	–	–
C[C@H]1C[C@H]1C(=O)N1C2CNCC1C2	1800	9.6	–	180	–	–	–	–
O=C([C@@H]1C[C@@H]2C=C[C@H]1C2)N1CC2CC(C1)N2	1300	–	–	210	160	–	–	–
O=C(C1CC2C=CC1C2)N1C2CNCC1C2 (stereo not drawn)	900	–	–	380	200	–	–	–
CC1CC(C(=O)N2CC3CC(C2)N3)C1 (stereo not drawn)	380	23	22	–	–	–	–	–
CC1(C)CC1C(=O)N1CC2CC(C1)N2 (stereo not drawn)	–	5.3	6.7	–	–	120	–	–
C/C=C/CCC(=O)N1C2CNCC1C2	400	53	15	–	–	–	–	–
O=C(C1CC12CCC2)N1C2CNCC1C2 (stereo not drawn)	340	38	32	–	–	–	–	–
C/C=C/CCC(=O)N1CC2CC(C1)N2	540	37	25	–	–	–	–	–
O=C(C1CC12CCC2)N1CC2CC(C1)N2 (stereo not drawn)	–	2.6	1.2	–	–	50	–	–
C[C@H]1C[C@H]1C(=O)N1CC2CC(C1)N2	–	1.8	0.39	–	–	58	–	–
O=C([C@@H]1C[C@@H]1F)N1CC2CC(C1)N2	–	1.8	0.86	–	–	280	–	–
O=C(c1occc1Cl)N1CC2CC(C1)N2 [3-(3-chlorofuran-2-yl)carbonyl-3,6-diazabicyclo[3.1.1]heptane]	2400	–	–	–	–	–	7.9	56
O=C(NCc1ccc(Cl)c(Cl)c1)N1CC2CC(C1)N2	120	90	71	–	–	–	–	–
O=C([C@@H]1C[C@H]1c1ccccc1)N1CC2CC(C1)N2	–	4.7	4.4	–	–	64	–	–
CCCC(=O)N1C2CNCC1C2	230	9.9	5.1	–	–	–	–	–
CCCC(=O)N1CC2CC(C1)N2	–	12	4.1	–	–	290	–	–
O=C(c1cnco1)N1CC2CC(C1)N2	17000	28	0.18	–	–	–	–	–
[2H]C1([2H])C([2H])([2H])C1([2H])C(=O)N1CC2CC(C1)N2	–	0.49	0.24	–	–	120	–	–
O=C(CC1CCCC1)N1C2CNCC1C2	360	–	100	–	220	–	–	–
O=C([C@H]1C[C@@H]1F)N1CC2CC(C1)N2 [drawing 165]	–	4.6	1.6	–	–	780	–	–
CC1CC1C(=O)N1CC2CC(C1)N2 (stereo not drawn)	–	5	1.8	–	–	120	–	–
O=C([C@@H]1C[C@H]1F)N1CC2CC(C1)N2	–	–	0.54	–	1	91	–	–
O=C(CC(F)(F)F)N1CC2CC(C1)N2 [3-(2,2,2-trifluoroethyl)carbonyl-3,6-diazabicyclo[3.1.1]heptane]	1700	11	25	–	–	–	–	–
O=C(NCc1ccc(Cl)cc1)N1CC2CC(C1)N2	210	–	4	–	110	–	–	–
CC1CC(C(=O)N2C3CNCC2C3)C1 (stereo not drawn)	770	49	58	–	–	–	–	–
O=C(c1ccc(Br)o1)N1CC2CC(C1)N2 [3-(2-bromofuran-5-yl)carbonyl-3,6-diazabicyclo[3.1.1]heptane]	1800	25	83	–	–	–	–	–
O=C(C1CC(F)(F)C1)N1CC2CC(C1)N2	370	16	19	–	–	–	–	–

SMILES	Ki (α6β3β4α5; read-out: α6β3β4α5 Ki) [nM]	Ki (Human α4β2; [1]) [nM]	Ki (Rat α4β2; [2]) [nM]	Ki (Rat α4β2; [3]) [nM]	Ki (Human α4β2; [4]) [nM]	Ki (α6β3β4α5; α6β3β4α5 Ki) [nM]	Ki (Human α4β2; read-out: Human α4β2 Ki, membrane competition binding) [nM]	Ki (Rat α4β2; read-out: Rat α4β2 Ki, rat cortex membranes) [nM]
O=C(NCc1ccccc1)N1CC2CC(C1)N2	400	–	–	200	270	–	–	–
C[C@@H]1C[C@H]1C(=O)N1C2CNCC1C2	1700	9.2	50	–	–	–	–	–
O=C(NCc1ccc(Cl)cc1Cl)N1CC2CC(C1)N2	–	48	24	–	–	38	–	–
O=C(C1CC(F)(F)C1)N1C2CNCC1C2	510	54	16	–	–	–	–	–
O=C(C1CC1)N1CC2CC(C1)N2 [3-cyclopropylcarbonyl-3,6-diazabicyclo[3.1.1]heptane]	–	–	2.3	–	3	140	–	–
O=C([C@H]1C[C@@H]1F)N1CC2CC(C1)N2 [drawing 111]	–	4.5	0.81	–	–	120	–	–
C[C@@H]1C[C@H]1C(=O)N1CC2CC(C1)N2	–	–	0.08	–	1	95	–	–
O=C(CC1CC1)N1C2CNCC1C2	310	43	27	–	–	–	–	–
O=C(CC1CCOC1)N1C2CNCC1C2 (stereo not drawn)	1600	–	–	130	330	–	–	–
O=C(CCC(F)(F)F)N1CC2CC(C1)N2	980	74	63	–	–	–	–	–
O=C(C1C2CCCCC21)N1CC2CC(C1)N2 (stereo not drawn)	280	78	30	–	–	–	–	–
O=C([C@H]1C[C@H]1F)N1CC2CC(C1)N2 [drawing 163]	–	–	0.53	–	1.1	150	–	–
O=C(CCC(F)(F)F)N1C2CNCC1C2	1500	–	72	–	180	–	–	–
O=C(c1cc(Br)co1)N1CC2CC(C1)N2 [3-(3-bromofuran-5-yl)carbonyl-3,6-diazabicyclo[3.1.1]heptane]	2700	35	80	–	–	–	–	–
O=C([C@H]1C[C@H]1F)N1CC2CC(C1)N2 [drawing 110]	–	5.2	1.1	–	–	530	–	–
C[C@H]1C[C@@H]1C(=O)N1CC2CC(C1)N2 [drawing 157]	–	7.6	100	–	–	2600	–	–
O=C(C1CC12CCCC2)N1CC2CC(C1)N2 (stereo not drawn)	–	26	31	–	–	96	–	–
O=C(C1CC1(F)F)N1CC2CC(C1)N2 (stereo not drawn)	–	6.1	8.8	–	–	510	–	–
O=C(CC1CCC1)N1C2CNCC1C2	360	53	30	–	–	–	–	–
O=C([C@@H]1C[C@H]1c1ccccc1)N1C2CNCC1C2	350	30	51	–	–	–	–	–
CC1(C)C(C(=O)N2CC3CC(C2)N3)C1(C)C	480	–	–	710	140	–	–	–
C[C@H]1C[C@@H]1C(=O)N1CC2CC(C1)N2 [drawing 170]	–	13	4.8	–	–	1700	–	–
CC1(C)CC1C(=O)N1C2CNCC1C2 (stereo not drawn)	800	75	45	–	–	–	–	–
O=C(CSc1ccc(O)cc1)N1CC2CC(C1)N2	120	11	8.6	–	–	–	–	–
O=C(CC1CCC1)N1CC2CC(C1)N2	440	49	34	–	–	–	–	–
CCC[C@H]1C[C@H]1C(=O)N1CC2CC(C1)N2	220	44	–	130	–	–	–	–
CC(C)C(=O)N1CC2CC(C1)N2 [3-isopropylcarbonyl-3,6-diazabicyclo[3.1.1]heptane]	–	220	23	–	–	830	–	–
